Patent US8937056B2, “Multikinase inhibitors for use in the treatment of cancer” (Eisai R&D Management Co., Ltd., priority 2007, dated 2015)
Like-named read-outs stand apart in the source and are kept apart here.

What was measured:
Map/Erk kinase (MEK) = conditions: cited from earlier work
[1] = test system: PANC-1 pancreatic cancer cells; experiment: PANC-1 cell growth, alone or in combination with SN-38 (CellTiter-Glo)
Description: To determine whether compounds 091 or 106 in combination with SN-38 would enhance the anticancer activity of chemotherapy due to MEKK1 inhibition, PANC-1 human pancreatic cancer cells were examined.
Antiproliferative effects of SN-38 were evaluated in PANC-1 pancreatic cancer cells in combination with compound 091 or 106. Cultured human cancer cells were placed into 96-well plates and grown in the absence or continuous presence of 0.03-1000 nM SN-38 for 96 h with or without 1 μM of test compound. Cell growth was assessed using CellTiter-Glo® Luminescent Cell Viability Assay (Promega). IC50 values were determined as the concentration of a substance which inhibits cell growth by 50% compared to untreated cell populations.

[2] = test system: Cell lines which carried a B-RAF V600E mutation; experiment: Cell growth inhibition in solid cancer cell lines (CellTiter-Glo or methylene blue); format: cell-based; conditions: 96 hours, B-RAF V600E mutated cell lines very sensitive
Description: Compounds 091 and 106, were extensively tested in solid cancer cell lines (shown in FIG. 3 for 18 cell lines for compound 091 and 20 cell lines for compound 106). […] Cell growth was assessed using a CellTiter-Glo® Luminescent Cell Viability Assay (Promega) or a methylene blue assay.

MV-4-11 AML cells = experiment: MV-4-11 cell proliferation assay (CellTiter-Glo); format: cell-based, human; conditions: 96 h
Description: A study was carried out to investigate the anticancer activity of compound 106 in a FLT-3 mutated (AML) cell line in vitro. The antiproliferative effects of compound 106 were determined in a cell proliferation assay using MV-4-11 AML cells. […] Luminescence was read on the EnVision 2102 Multilabel Counter (Perkin-Elmer/Wallac, Waltham, Mass.). The software, Graphpad Prism (ver. 4, San Diego, Calif.) was used for determination of IC50 values. The raw value for the untreated control represents an average from 4 wells.

[3] = test system: Colo205 human colon cancer xenografts; experiment: In vivo antitumor activity in Colo205 xenografts; design: species or system mice; conditions: similar study with a different dosing schedule
Description: A study was carried out to investigate anticancer activity of compounds 091 and 106 in human Colo205 BRAF mutated colon cancer xenografts. The compounds were evaluated against subcutaneous-implanted Colo205 human colon cancer xenografts in female athymic mice.
The human colon cancer cell line, Colo205 which has B-RAF (V600E) mutation was transplanted subcutaneously into female nude mice. The experiment consisted of 6 mice per group on the first day of treatment. The compound was administered intravenously for two weekly rounds of five daily injections (q1d×5) with a two-day rest period between the rounds. Compound 091 was administered in a vehicle volume of 0.1 mL/10 g of body weight.
The general health of the mice was monitored daily. Tumor dimensions and body weights were recorded twice a week starting on the first day of treatment. Tumor weights were calculated using the equation (l×w^2)/2, where 1 and w refer to the larger and smaller dimensions collected at each measurement. When the mean tumor volume reached 140 mm^3, vehicle (cremophor:ethanol:5% glucose; 1:1:8) or the test compound (30 mg/kg) was administered to mice (6/group).

[4] = test system: LOX human melanoma xenografts; experiment: In vivo antitumor activity in LOX xenografts; design: species or system mice
Description: A study was carried out to investigate anticancer activity of compounds 091 and 106 in human LOX BRAF mutated melanoma xenografts. The compounds were evaluated against subcutaneous-implanted LOX human melanoma xenografts in female athymic mice.
The human melanoma cell line, LOX which has B-RAF (V600E) mutation was transplanted subcutaneously into female nude mice. The experiment consisted of 8 mice per group on the first day of treatment. Compounds were independently administered intravenously for two weekly rounds of five daily injections (q1d×5) with a two-day rest period between the rounds. Compounds were administered in a vehicle volume of 0.1 mL/10 g of body weight.
The general health of the mice was monitored daily. Tumor dimensions and body weights were recorded twice a week starting on the first day of treatment. Tumor weights were calculated using the equation (l×w^2)/2, where 1 and w refer to the larger and smaller dimensions collected at each measurement. When the mean tumor volume reached 128 mm^3, vehicle (cremophor:ethanol:5% glucose; 1:1:8) or one of the test compounds (10, 20, 30, or 40 mg/kg) was administered to mice (8/group).

Flt-3 receptor = experiment: Phosphorylation of Flt-3 receptor in MV-4-11 cells (immunoblot); format: cell-based, human; conditions: 24 h
Description: A study was carried out to investigate the ability of compound 106 to inhibit phosphorylation of Flt-3 receptor in a FLT3-mutated (AML) cell line in vitro. MV-4-11 human acute myeloid leukemia (AML) cells (Catalog #CRL-9591, ATCC, Rockville, Md.), which carry an activation mutation of Flt-3, were plated into a […] flasks and incubated for 1 day. Then, compound 106 at concentrations of 0.1 nmol/L-300 nmol/L (or culture medium) were added to each flask and cultured for 24 h. The control dish received cultured medium alone. Cells lysates were prepared using ice cold lysis buffer. In order to detect phospho-Flt-3 protein, MV-4-11 cell lysate proteins were subjected to SDS-PAGE under reducing conditions and immunoblotted with an antibody against phospho-Flt-3 antibody (Catalog #3464, Cell Signaling Technology, Danvers, Mass.). Western blots were probed with secondary IRDye antibodies (LI-COR, Inc., Lincoln, Nebr.). Blotted proteins were visualized using the Odyssey infrared imaging system (LI-COR, Inc., Lincoln, Nebr.). Anti-actin antibody (Catalog #sc-8432, Santa Cruz Biotechnologies, Inc., Santa Cruz, Calif.) was used as a loading control.

[5] = test system: human hematologic cancer cell lines; experiment: Antiproliferative effects in hematologic cancer cell lines (MTT assay); format: cell-based; conditions: cell lines derived from leukemia, or B-cells such non-Hodgkin's lymphoma, 96 h
Description: A study was carried out to investigate anticancer activity of compounds 091 and 106 in a panel of human hematologic cancer cell lines in vitro. Antiproliferative effects of compounds 091 and 106 were evaluated in 7 human cancer cell lines representing several different cancer types of hematologic malignancy. […] Cell growth was assessed using the MTT assay.

MEK1 = MEK1 (Homo sapiens, UniProt Q02750); experiment: Biochemical MEK1 assay (ELISA, ERK2-coated plate); conditions: 1 μmol/L ATP
Description: A biochemical MEK1 assay was carried out to investigate whether compounds of formula (I) or (II), e.g., compounds 029, 091, 106 and 114 are MEK1 inhibitors. Biochemical MEK1 inhibition of the compounds was assessed using an ELISA assay. All assays were performed in a 96 well format. A plate coated with ERK2, a substrate protein for MEK1 was used for biochemical MEK1 assay. In a final volume of 40 μL, MEK1 (25 ng) was incubated with 50 mmol/L HEPES, 20 mmol/L MgCl2, 4 mmol/L MnCl2, and 0.5 mmol/L Na3VO4 in the absence or presence of the test compounds. The reaction was initiated by the addition of 1 μmol/L ATP. After incubation for 40 minutes at 30° C., the reaction mixture was discarded and the plate was then washed 4 times with 0.05% Tween20/PBS. Each well was incubated with 100 μL of 1:4000 diluted phospho-ERK1/2 monoclonal antibody (Cell Signaling, MA) for 1.5 hours at room temperature. The antibody was then discarded and the plate was washed 6 times with 0.05% Tween20/PBS. Finally, 100 μL of 1:2000 diluted of HRP conjugated anti-mouse IgG antibody (Cell Signaling, MA) was added. After incubation for 90 minutes, this antibody was discarded and the plate was washed 8 times with 0.05% Tween20/PBS. Phosphorylated ERK2 was then visualized by peroxidase reaction, and read at 450 nm. FIG. 2A is a table depicting results from MEK1 assays.

Sequence of MEK1 (Q02750 whole entry): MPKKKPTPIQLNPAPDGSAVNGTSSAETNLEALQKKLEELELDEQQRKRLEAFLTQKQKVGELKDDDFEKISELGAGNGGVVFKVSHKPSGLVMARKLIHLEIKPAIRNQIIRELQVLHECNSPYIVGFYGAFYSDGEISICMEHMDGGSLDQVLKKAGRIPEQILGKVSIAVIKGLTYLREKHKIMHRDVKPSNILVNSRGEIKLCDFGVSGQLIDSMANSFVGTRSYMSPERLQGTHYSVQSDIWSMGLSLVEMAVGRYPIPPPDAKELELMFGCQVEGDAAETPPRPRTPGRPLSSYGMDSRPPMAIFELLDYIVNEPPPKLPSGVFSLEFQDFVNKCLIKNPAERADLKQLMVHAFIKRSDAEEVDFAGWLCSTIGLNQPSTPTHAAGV

COc1cc(O)c2c(c1)/C=C/C[C@H](O)[C@H](O)C(=O)/C=C\C[C@H](C)OC2=O [Compound F152]
inhibition of MEK (Map/Erk kinase (MEK)): inhibit

CCc1c2c(nc3ccc(O)cc13)-c1cc3c(c(=O)n1C2)COC(=O)[C@]3(O)CC [SN-38, reference compound]
IC50 ([1]; read-out: IC50 for cell growth inhibition in combination setting, SN-38 with 1 μM of compound 091 or compound 106, 96 h): 16.2 nM | IC50 ([1]; read-out: IC50 for cell growth inhibition, SN-38 alone, 96 h): 82.5 nM

CCNc1cc(O)c2c(c1)/C=C/C[C@H](O)[C@H](O)C(=O)/C=C\[C@@H](C)[C@H](C)OC2=O [Compound 106]
cell growth inhibition, concentration range of sensitivity [2]: low-nM or sub-μM | IC50, antiproliferative activity (MV-4-11 AML cells): low-nmol/L | tumor regression from the first day of treatment [3]: 70% | mice tumor free at the end of study ([4]; 10 mg/kg): 5 out of 8 | mice tumor free at the end of study ([4]; 20 mg/kg): 8 out of 8 | mice tumor free at the end of study ([4]; 40 mg/kg): 8 out of 8 | anticancer activity ([4]; three dosages, 10, 20, and 40 mg/kg/dose): statistically significant anticancer activity | constitutive phosphorylation of Flt-3 receptor (Flt-3 receptor; 10 nmol/L): completely inhibited | protein level of phospho-Flt-3 (Flt-3 receptor; 0.1-300 nmol/L, concentration dependent): decreased | sensitivity of cell growth [5]: sensitive | effect on PANC-1 cancer cell growth, compound alone ([1]; 1 μM alone, separate experiments (data not shown)): did not affect | MEK1 inhibitory activity (MEK1): low nM activity
